For test [1], the target named is NAADP receptor. Kind of test: Ca2+ release assay in sea urchin egg homogenate. It counts as biochemical, Strongylocentrotus purpuratus. As to conditions: read-out: Ca2+ mobilizing EC50, fluo-3, n = 3, ± STDEV.
Test [2] concerns the target NAADP receptor. The test is described as follows: Self-desensitization to subsequent 1 μM NAADP in sea urchin egg homogenate. It counts as biochemical, Strongylocentrotus purpuratus. As to conditions: read-out: IC50 for desensitization to NAADP-evoked Ca2+ release, subsequent addition of 1 μM NAADP, n = 3, ± STDEV.
The subject of another test is U2OS cells. The test is described as follows: Ca2+ mobilization after microinjection into U2OS cells expressing GCaMP6M. The class given is cell-based, human. As to conditions: GCaMP6M fluorescence.
The next test relates to 23 kDa protein. It counts as binding, human. As to conditions: U2OS cell extracts; for IC50: read-out: IC50 for displacement of photolabeling of the 23 kDa protein, [32P]-5N3-8-ethynyl-NAADP (0.23 nM) photoprobe, densitometry.
For the next test, the system named is 35 kDa protein. The class given is binding, human. As to conditions: U2OS cell extracts; for IC50: read-out: IC50 for displacement of photolabeling of the 35 kDa band, [32P]-5N3-8-ethynyl-NAADP (0.23 nM) photoprobe, densitometry.

The values below come from PMC8101546 (Biochimica et biophysica acta. Molecular cell research, 2018).

For `C#Cc1nc2c(N)ncnc2n1C1OC(COP(=O)(O)OP(=O)(O)OC[C@H]2O[C@@H]([n+]3cc(N=[N+]=[N-])cc(C(=O)[O-])c3)[C@H](O)[C@@H]2O)C(O)C1OP(=O)(O)O` (some centres unmarked) [5N3-8-ethynyl-NAADP, 5-Azido-8-ethynyl-NAADP], the EC50 on NAADP receptor [1] amounted to 2860 ± 400 nM. Also, the half-inhibitory concentration (IC50) at NAADP receptor [2] worked out at 99 ± 7.7 nM. The “peak F/F0 (Ca2+ response)” value in the test on U2OS cells (1 μM in pipette, n = 3) came to 2.14 ± 0.37; in the test with U2OS cells (10 μM in pipette, n = 3) it was 2.8 ± 0.33.

On to `Nc1ncnc2c1ncn2[C@@H]1O[C@H](COP(=O)(O)OP(=O)(O)OCC2OC([n+]3cccc(C(=O)[O-])c3)C(O)C2O)[C@@H](O)[C@H]1OP(=O)(O)O` (stereo in doubt) [NAADP, nicotinic acid adenine dinucleotide 2′-phosphate], for which the “displacement of 23 kDa photolabeling, more penetrant compared to NADP” value in the test with 23 kDa protein (ratio of IC50 values NADP/NAADP) is ~ 9 fold. Further, the IC50 with 23 kDa protein turned out to be 27 ± 1.3 nM; in the test with 35 kDa protein, 213 ± 19 nM. Also, the “peak F/F0 (Ca2+ response)” value in the test on U2OS cells (100 nM in pipette, n = 3 injections) came out at 4.01 ± 1.2. Also, in the test on 35 kDa protein (ratio of IC50 values 35 kDa/23 kDa), the “lower affinity of the 35 kDa band in contrast to the 23 kDa band” value is listed as ~ 8 fold.

As for `NC(=O)c1ccc[n+]([C@@H]2O[C@H](COP(=O)([O-])OP(=O)(O)OC[C@H]3O[C@@H](n4cnc5c(N)ncnc54)[C@H](OP(=O)(O)O)[C@@H]3O)[C@@H](O)[C@H]2O)c1` [NADP, nicotinamide adenine dinucleotide 2′-phosphate], the results for the IC50 with 23 kDa protein and in the test with 35 kDa protein were 246 ± 13 nM and 940 ± 204 nM, respectively.

Broadly, the EC50 is the midpoint of the concentration-response curve. One may read the IC50 as the midpoint of a concentration-inhibition curve.
